Test results reported in ChEMBL document CHEMBL3046287, “Azoxystrobin resistance of French Mycosphaerella graminicola strains assessed by four in vitro bioassays and by screening of G143A substitution” (Crop Prot, 2010).
Converted amounts (≈) assume the structure as drawn.

Columns and labels:
Type in all cases: functional, organism-based
Zymoseptoria tritici [1] = assay: Antifungal activity against azoxystrobin-resistant Zymoseptoria tritici T055 carrying cytochrome-b A143 allele assessed as inhibition of spore germination after 2 days at 18 degC by spotting on PDA medium assay; details: T055, 48 h
Zymoseptoria tritici [2] = assay: Antifungal activity against azoxystrobin-sensitive Zymoseptoria tritici T0403 carrying cytochrome-b G143 allele assessed as fungal growth inhibition after 6 days at 20 degC by microplate without alamar blue assay; details: T0403, 144 h
Zymoseptoria tritici [3] = assay: Antifungal activity against azoxystrobin-sensitive Zymoseptoria tritici T0468 carrying cytochrome-b G143 allele assessed as inhibition of spore germination after 2 days at 18 degC by spotting on PDA medium assay; details: T0468, 48 h
Zymoseptoria tritici [4] = assay: Antifungal activity against azoxystrobin-sensitive Zymoseptoria tritici T0148 carrying cytochrome-b G143 allele assessed as inhibition of spore germination after 2 days at 18 degC by spotting on PDA medium assay; details: T0148, 48 h
Zymoseptoria tritici [5] = assay: Antifungal activity against azoxystrobin-resistant Zymoseptoria tritici T0414 carrying cytochrome-b A143 allele assessed as fungal colony perpendicular diameter changes after 10 days at 18 degC by spotting on PDA medium assay; details: T0414, 240 h
Zymoseptoria tritici [6] = assay: Antifungal activity against azoxystrobin-sensitive Zymoseptoria tritici T0365 carrying cytochrome-b G143 allele assessed as inhibition of spore germination after 2 days at 18 degC by spotting on PDA medium assay; details: T0365, 48 h
Zymoseptoria tritici [7] = assay: Antifungal activity against azoxystrobin-resistant Zymoseptoria tritici T0485 carrying cytochrome-b A143 allele assessed as fungal growth inhibition after 6 days at 20 degC by microplate without alamar blue assay; details: T0485, 144 h
Zymoseptoria tritici [8] = assay: Antifungal activity against azoxystrobin-resistant Zymoseptoria tritici T0414 carrying cytochrome-b A143 allele assessed as fungal growth inhibition after 6 days at 20 degC by microplate without alamar blue assay; details: T0414, 144 h
Zymoseptoria tritici [9] = assay: Antifungal activity against azoxystrobin-sensitive Zymoseptoria tritici T0384 carrying cytochrome-b G143 allele assessed as fungal growth inhibition after 6 days at 20 degC by microplate without alamar blue assay; details: T0384, 144 h
Zymoseptoria tritici [10] = assay: Antifungal activity against azoxystrobin-sensitive Zymoseptoria tritici T0210 carrying cytochrome-b G143 allele assessed as fungal growth inhibition after 6 days at 20 degC by microplate without alamar blue assay; details: T0210, 144 h
Zymoseptoria tritici [11] = assay: Antifungal activity against azoxystrobin-resistant Zymoseptoria tritici T0251 carrying cytochrome-b A143 allele assessed as fungal growth inhibition after 6 days at 20 degC by microplate without alamar blue assay; details: T0251, 144 h
Zymoseptoria tritici [12] = assay: Antifungal activity against azoxystrobin-sensitive Zymoseptoria tritici T0214 carrying cytochrome-b G143 allele assessed as fungal growth inhibition after 6 days at 20 degC by microplate without alamar blue assay; details: T0214, 144 h
Zymoseptoria tritici [13] = assay: Antifungal activity against azoxystrobin-resistant Zymoseptoria tritici T0290 carrying cytochrome-b A143 allele assessed as fungal colony perpendicular diameter changes after 10 days at 18 degC by spotting on PDA medium assay; details: T0290, 240 h
Zymoseptoria tritici [14] = assay: Antifungal activity against azoxystrobin-sensitive Zymoseptoria tritici T0365 carrying cytochrome-b G143 allele assessed as fungal colony perpendicular diameter changes after 10 days at 18 degC by spotting on PDA medium assay; details: T0365, 240 h
Zymoseptoria tritici [15] = assay: Antifungal activity against azoxystrobin-sensitive Zymoseptoria tritici T0464 carrying cytochrome-b G143 allele assessed as inhibition of spore germination after 2 days at 18 degC by spotting on PDA medium assay; details: T0464, 48 h
Zymoseptoria tritici [16] = assay: Antifungal activity against azoxystrobin-resistant Zymoseptoria tritici T0451 carrying cytochrome-b A143 allele assessed as fungal colony perpendicular diameter changes after 10 days at 18 degC by spotting on PDA medium assay; details: T0451, 240 h
Zymoseptoria tritici [17] = assay: Antifungal activity against azoxystrobin-resistant Zymoseptoria tritici T0485 carrying cytochrome-b A143 allele assessed as inhibition of spore germination after 2 days at 18 degC by spotting on PDA medium assay; details: T0485, 48 h
Zymoseptoria tritici [18] = assay: Antifungal activity against azoxystrobin-sensitive Zymoseptoria tritici T0209 carrying cytochrome-b G143 allele assessed as fungal growth inhibition after 6 days at 20 degC by microplate without alamar blue assay; details: T0209, 144 h
Zymoseptoria tritici [19] = assay: Antifungal activity against azoxystrobin-resistant Zymoseptoria tritici T0414 carrying cytochrome-b A143 allele assessed as inhibition of spore germination after 2 days at 18 degC by spotting on PDA medium assay; details: T0414, 48 h
Zymoseptoria tritici [20] = assay: Antifungal activity against azoxystrobin-sensitive Zymoseptoria tritici T0211 carrying cytochrome-b G143 allele assessed as inhibition of spore germination after 2 days at 18 degC by spotting on PDA medium assay; details: T0211, 48 h
Zymoseptoria tritici [21] = assay: Antifungal activity against azoxystrobin-sensitive Zymoseptoria tritici IPO323 carrying cytochrome-b G143 allele assessed as inhibition of spore germination after 2 days at 18 degC by spotting on PDA medium assay; details: IPO323, 48 h
Zymoseptoria tritici [22] = assay: Antifungal activity against azoxystrobin-sensitive Zymoseptoria tritici T0403 carrying cytochrome-b G143 allele assessed as fungal colony perpendicular diameter changes after 10 days at 18 degC by spotting on PDA medium assay; details: T0403, 240 h
Zymoseptoria tritici [23] = assay: Antifungal activity against azoxystrobin-sensitive Zymoseptoria tritici T0209 carrying cytochrome-b G143 allele assessed as fungal colony perpendicular diameter changes after 10 days at 18 degC by spotting on PDA medium assay; details: T0209, 240 h
Zymoseptoria tritici [24] = assay: Antifungal activity against azoxystrobin-resistant Zymoseptoria tritici T0345 carrying cytochrome-b A143 allele assessed as fungal colony perpendicular diameter changes after 10 days at 18 degC by spotting on PDA medium assay; details: T0345, 240 h
Zymoseptoria tritici [25] = assay: Antifungal activity against azoxystrobin-sensitive Zymoseptoria tritici IPO323 carrying cytochrome-b G143 allele assessed as fungal growth inhibition after 6 days at 20 degC by microplate without alamar blue assay; details: IPO323, 144 h
Zymoseptoria tritici [26] = assay: Antifungal activity against azoxystrobin-sensitive Zymoseptoria tritici T0211 carrying cytochrome-b G143 allele assessed as fungal colony perpendicular diameter changes after 10 days at 18 degC by spotting on PDA medium assay; details: T0211, 240 h
Zymoseptoria tritici [27] = assay: Antifungal activity against azoxystrobin-resistant Zymoseptoria tritici T049 carrying cytochrome-b A143 allele assessed as fungal growth inhibition after 6 days at 20 degC by microplate without alamar blue assay; details: T049, 144 h
Zymoseptoria tritici [28] = assay: Antifungal activity against azoxystrobin-resistant Zymoseptoria tritici T0242 carrying cytochrome-b A143 allele assessed as fungal colony perpendicular diameter changes after 10 days at 18 degC by spotting on PDA medium assay; details: T0242, 240 h
Zymoseptoria tritici [29] = assay: Antifungal activity against azoxystrobin-resistant Zymoseptoria tritici T0242 carrying cytochrome-b A143 allele assessed as fungal growth inhibition after 6 days at 20 degC by microplate without alamar blue assay; details: T0242, 144 h
Zymoseptoria tritici [30] = assay: Antifungal activity against azoxystrobin-sensitive Zymoseptoria tritici T0460 carrying cytochrome-b G143 allele assessed as fungal growth inhibition after 6 days at 20 degC by microplate without alamar blue assay; details: T0460, 144 h

Q: For `CO/C=C(/C(=O)OC)c1ccccc1Oc1cc(Oc2ccccc2C#N)ncn1` [AZOXYSTROBIN], which IC50 (Zymoseptoria tritici [1]) is on record?
A: The IC50 was 15.6 µg/mL (≈ 38.6 µM).

Q: And the IC50 (Zymoseptoria tritici [2])?
A: The IC50 was 9.9 µg/mL (≈ 24.5 µM).

Q: What about the IC50 (Zymoseptoria tritici [3]) of the same molecule?
A: The IC50 was 0.25 µg/mL (≈ 0.62 µM).

Q: And the IC50 (Zymoseptoria tritici [4])?
A: The IC50 was 0.08 µg/mL (≈ 0.198 µM).

Q: What about the IC50 (Zymoseptoria tritici [5]) of the same molecule?
A: The IC50 was 11.8 µg/mL (≈ 29.3 µM).

Q: And the IC50 (Zymoseptoria tritici [6])?
A: The IC50 was 0.06 µg/mL (≈ 0.149 µM).

Q: And the IC50 (Zymoseptoria tritici [7])?
A: The IC50 was > 100 µg/mL.

Q: What about the IC50 (Zymoseptoria tritici [8]) of the same molecule?
A: Its IC50 is > 100 µg/mL.

Q: And the IC50 (Zymoseptoria tritici [9])?
A: Its IC50 is 0.06 µg/mL (≈ 0.149 µM).

Q: And the IC50 (Zymoseptoria tritici [10])?
A: The IC50 was 0.03 µg/mL (≈ 0.0744 µM).

Q: What about the IC50 (Zymoseptoria tritici [11]) of the same molecule?
A: The IC50 was > 100 µg/mL.

Q: And the IC50 (Zymoseptoria tritici [12])?
A: Its IC50 is 0.02 µg/mL (≈ 0.0496 µM).

Q: What about the IC50 (Zymoseptoria tritici [13]) of the same molecule?
A: Its IC50 is 11.2 µg/mL (≈ 27.7 µM).

Q: And the IC50 (Zymoseptoria tritici [14])?
A: Its IC50 is 0.11 µg/mL (≈ 0.273 µM).

Q: And the IC50 (Zymoseptoria tritici [15])?
A: Its IC50 is 0.22 µg/mL (≈ 0.545 µM).

Q: What about the IC50 (Zymoseptoria tritici [16]) of the same molecule?
A: Its IC50 is 14.7 µg/mL (≈ 36.5 µM).

Q: And the IC50 (Zymoseptoria tritici [17])?
A: The IC50 was 14.6 µg/mL (≈ 36.3 µM).

Q: What about the IC50 (Zymoseptoria tritici [18]) of the same molecule?
A: The IC50 was 0.01 µg/mL (≈ 0.0248 µM).

Q: And the IC50 (Zymoseptoria tritici [19])?
A: The IC50 was 16.2 µg/mL (≈ 40.3 µM).

Q: What about the IC50 (Zymoseptoria tritici [20]) of the same molecule?
A: Its IC50 is 0.08 µg/mL (≈ 0.198 µM).

Q: What about the IC50 (Zymoseptoria tritici [21]) of the same molecule?
A: Its IC50 is 0.07 µg/mL (≈ 0.174 µM).

Q: And the IC50 (Zymoseptoria tritici [22])?
A: The IC50 was 0.12 µg/mL (≈ 0.297 µM).

Q: And the IC50 (Zymoseptoria tritici [23])?
A: Its IC50 is 0.14 µg/mL (≈ 0.347 µM).

Q: And the IC50 (Zymoseptoria tritici [24])?
A: Its IC50 is > 100 µg/mL.

Q: And the IC50 (Zymoseptoria tritici [25])?
A: The IC50 was 0.01 µg/mL (≈ 0.0248 µM).

Q: What about the IC50 (Zymoseptoria tritici [26]) of the same molecule?
A: The IC50 was 0.08 µg/mL (≈ 0.198 µM).

Q: What about the IC50 (Zymoseptoria tritici [27]) of the same molecule?
A: Its IC50 is > 100 µg/mL.

Q: And the IC50 (Zymoseptoria tritici [28])?
A: The IC50 was 12 µg/mL (≈ 29.7 µM).

Q: And the IC50 (Zymoseptoria tritici [29])?
A: Its IC50 is > 100 µg/mL.

Q: And the IC50 (Zymoseptoria tritici [30])?
A: Its IC50 is 0.03 µg/mL (≈ 0.0744 µM).
